Experimental data taken from ChEMBL document CHEMBL1201862, “PubChem BioAssay data set” (2004).
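These data come from cells grown in 96-well plates and exposed to compound for 48 hours at five concentrations. GI50 marks 50% less growth.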 The source made the active and inactive calls. No stated cut-off is given here; in the data, active = GI50 up to about 1.1 µM and inactive = higher.

Legend:
Assay in all cases: inhibition of tumour cell growth, NCI panel, 48 h
786-0 = tested on: 786-0
A498 = tested on: A498
A549 = tested on: A549
ACHN = tested on: ACHN
BT-549 = tested on: BT-549
CAKI-1 = tested on: CAKI-1
CCRF-CEM = tested on: CCRF-CEM
COLO 205 = tested on: COLO 205
DU-145 = tested on: DU-145
EKVX = tested on: EKVX
HCC 2998 = tested on: HCC 2998
HCT-116 = tested on: HCT-116
HCT-15 = tested on: HCT-15
HL-60 = tested on: HL-60
HOP-62 = tested on: HOP-62
HOP-92 = tested on: HOP-92
HT-29 = tested on: HT-29
Hs-578T = tested on: Hs-578T
IGROV-1 = tested on: IGROV-1
K562 = tested on: K562
KM12 = tested on: KM12
LOX IMVI = tested on: LOX IMVI
M14 = tested on: M14
MCF7 = tested on: MCF7
MDA-MB-231 = tested on: MDA-MB-231
MDA-MB-435 = tested on: MDA-MB-435
MDA-N = tested on: MDA-N
MOLT-4 = tested on: MOLT-4
Malme-3M = tested on: Malme-3M
NCI-H226 = tested on: NCI-H226
NCI-H23 = tested on: NCI-H23
NCI-H460 = tested on: NCI-H460
NCI-H522 = tested on: NCI-H522
NCI/ADR-RES = tested on: NCI/ADR-RES
OVCAR-3 = tested on: OVCAR-3
OVCAR-4 = tested on: OVCAR-4
OVCAR-5 = tested on: OVCAR-5
OVCAR-8 = tested on: OVCAR-8
PC-3 = tested on: PC-3
RPMI-8226 = tested on: RPMI-8226
RXF 393 = tested on: RXF 393
SF-268 = tested on: SF-268
SF-295 = tested on: SF-295
SF-539 = tested on: SF-539
SK-MEL-28 = tested on: SK-MEL-28
SK-MEL-2 = tested on: SK-MEL-2
SK-MEL-5 = tested on: SK-MEL-5
SK-OV-3 = tested on: SK-OV-3
SN12C = tested on: SN12C
SNB-19 = tested on: SNB-19
SNB-75 = tested on: SNB-75
SR = tested on: SR
SW-620 = tested on: SW-620
T47D = tested on: T47D
TK-10 = tested on: TK-10
U-251 = tested on: U-251
UACC-257 = tested on: UACC-257
UACC-62 = tested on: UACC-62
UO-31 = tested on: UO-31
DLD-1 = tested on: DLD-1
DMS-114 = tested on: DMS-114
DMS-273 = tested on: DMS-273
HOP-18 = tested on: HOP-18

SMILES: c1cnc2c(c1)ccc1cccnc12
- GI50 (786-0): 3.78 µM (inactive)
- GI50 (A498): 12.6 µM (inactive)
- GI50 (A549): 5.07 µM (inactive)
- GI50 (ACHN): 2.86 µM (inactive)
- GI50 (BT-549): 9.79 µM (inactive)
- GI50 (CAKI-1): 3.18 µM (inactive)
- GI50 (CCRF-CEM): 1.87 µM (inactive)
- GI50 (COLO 205): 4.27 µM (inactive)
- GI50 (DU-145): 4.13 µM (inactive)
- GI50 (EKVX): 3.91 µM (inactive)
- GI50 (HCC 2998): 6.7 µM (inactive)
- GI50 (HCT-116): 3.78 µM (inactive)
- GI50 (HCT-15): 3.12 µM
- GI50 (HL-60): 0.354 µM (active)
- GI50 (HOP-62): 5.83 µM (inactive)
- GI50 (HOP-92): 8.91 µM (inactive)
- GI50 (HT-29): 4.55 µM (inactive)
- GI50 (Hs-578T): > 36.3 µM (inactive)
- GI50 (IGROV-1): 4.26 µM (inactive)
- GI50 (K562): 3.67 µM (inactive)
- GI50 (KM12): 4.93 µM (inactive)
- GI50 (LOX IMVI): 3.61 µM (inactive)
- GI50 (M14): 4.02 µM (inactive)
- GI50 (MCF7): 3.66 µM (inactive)
- GI50 (MDA-MB-231): > 42.1 µM (inactive)
- GI50 (MDA-MB-435): 5.21 µM (inactive)
- GI50 (MDA-N): 4.97 µM (inactive)
- GI50 (MOLT-4): 2.86 µM (inactive)
- GI50 (Malme-3M): 3.56 µM (inactive)
- GI50 (NCI-H226): 2.05 µM (inactive)
- GI50 (NCI-H23): 5.12 µM (inactive)
- GI50 (NCI-H460): 2.74 µM (inactive)
- GI50 (NCI-H522): 5.86 µM (inactive)
- GI50 (NCI/ADR-RES): 2.37 µM (inactive)
- GI50 (OVCAR-3): 6.67 µM (inactive)
- GI50 (OVCAR-4): 4.63 µM (inactive)
- GI50 (OVCAR-5): 5.31 µM (inactive)
- GI50 (OVCAR-8): 4.36 µM (inactive)
- GI50 (PC-3): > 27.1 µM (inactive)
- GI50 (RPMI-8226): 2.67 µM (inactive)
- GI50 (RXF 393): 4.48 µM (inactive)
- GI50 (SF-268): 4.07 µM (inactive)
- GI50 (SF-295): 3.52 µM (inactive)
- GI50 (SF-539): 3.72 µM (inactive)
- GI50 (SK-MEL-28): 4.95 µM (inactive)
- GI50 (SK-MEL-2): > 28.4 µM (inactive)
- GI50 (SK-MEL-5): 2.62 µM (inactive)
- GI50 (SK-OV-3): 11.7 µM (inactive)
- GI50 (SN12C): 3.27 µM (inactive)
- GI50 (SNB-19): 8.57 µM (inactive)
- GI50 (SNB-75): 13.6 µM (inactive)
- GI50 (SR): 1.02 µM (active)
- GI50 (SW-620): 8.69 µM (inactive)
- GI50 (T47D): 4.92 µM (inactive)
- GI50 (TK-10): 3.88 µM (inactive)
- GI50 (U-251): > 20.2 µM (inactive)
- GI50 (UACC-257): 3.78 µM (inactive)
- GI50 (UACC-62): 3.81 µM (inactive)
- GI50 (UO-31): 2.3 µM (inactive)

SMILES: CC1CC[C@@]2(OC1)O[C@H]1C[C@H]3[C@@H]4CC[C@H]5C[C@@H](OC6OC(CO)C(OC7OC(CO)C(OC8OC(CO)C(O)C(OC9OC(C)C(OC%10OC(C)C(O)C(O)C%10O)C(O)C9O)C8OC8OCC(O)C(O)C8O)C(O)C7O)C(O)C6O)CC[C@]5(C)[C@H]4CC(=O)[C@]3(C)[C@H]1[C@@H]2C (stereo not given in full)
- GI50 (786-0): 22.4 µM (inactive)
- GI50 (A498): 18.2 µM (inactive)
- GI50 (A549): 23.2 µM (inactive)
- GI50 (ACHN): 17.2 µM (inactive)
- GI50 (BT-549): 20.9 µM (inactive)
- GI50 (CAKI-1): 15.6 µM (inactive)
- GI50 (CCRF-CEM): 12.2 µM (inactive)
- GI50 (COLO 205): 16.5 µM (inactive)
- GI50 (DU-145): 19.9 µM (inactive)
- GI50 (EKVX): 22.1 µM (inactive)
- GI50 (HCC 2998): 18.7 µM (inactive)
- GI50 (HCT-116): 23.4 µM (inactive)
- GI50 (HCT-15): 19.1 µM
- GI50 (HL-60): 12.9 µM (inactive)
- GI50 (HOP-62): 21.4 µM (inactive)
- GI50 (HOP-92): 19 µM (inactive)
- GI50 (HT-29): 36 µM (inactive)
- GI50 (Hs-578T): 24.2 µM (inactive)
- GI50 (IGROV-1): 20.5 µM (inactive)
- GI50 (K562): 16.7 µM (inactive)
- GI50 (KM12): 18.2 µM (inactive)
- GI50 (LOX IMVI): 23.8 µM (inactive)
- GI50 (M14): 20.8 µM (inactive)
- GI50 (MCF7): 17.7 µM (inactive)
- GI50 (MDA-MB-231): 16.1 µM (inactive)
- GI50 (MDA-MB-435): 18.7 µM (inactive)
- GI50 (MDA-N): 20 µM (inactive)
- GI50 (MOLT-4): 18.1 µM (inactive)
- GI50 (Malme-3M): 22.4 µM (inactive)
- GI50 (NCI-H226): 18.8 µM (inactive)
- GI50 (NCI-H23): 20.5 µM (inactive)
- GI50 (NCI-H460): 17.8 µM (inactive)
- GI50 (NCI-H522): 23.7 µM (inactive)
- GI50 (NCI/ADR-RES): 23.7 µM (inactive)
- GI50 (OVCAR-3): 22.6 µM (inactive)
- GI50 (OVCAR-4): 16.1 µM (inactive)
- GI50 (OVCAR-5): 20.8 µM (inactive)
- GI50 (OVCAR-8): 20.7 µM (inactive)
- GI50 (PC-3): 16.7 µM (inactive)
- GI50 (RPMI-8226): 16.2 µM (inactive)
- GI50 (RXF 393): 16.9 µM (inactive)
- GI50 (SF-268): 25.6 µM (inactive)
- GI50 (SF-295): 23.9 µM (inactive)
- GI50 (SF-539): 14.8 µM (inactive)
- GI50 (SK-MEL-28): 18.1 µM (inactive)
- GI50 (SK-MEL-2): 16.1 µM (inactive)
- GI50 (SK-MEL-5): 16.8 µM (inactive)
- GI50 (SK-OV-3): 24.1 µM (inactive)
- GI50 (SN12C): 20.9 µM (inactive)
- GI50 (SNB-19): 20.5 µM (inactive)
- GI50 (SNB-75): 19.8 µM (inactive)
- GI50 (SR): 14.6 µM (inactive)
- GI50 (SW-620): 20.3 µM (inactive)
- GI50 (T47D): 19.3 µM (inactive)
- GI50 (TK-10): 17.7 µM (inactive)
- GI50 (U-251): 18.7 µM (inactive)
- GI50 (UACC-257): 18.2 µM (inactive)
- GI50 (UACC-62): 18.8 µM (inactive)
- GI50 (UO-31): 19.2 µM (inactive)

SMILES: CCOC(=O)CNC(=O)C(CSC(=O)N(C)O)NC(=O)CCC(N)C(=O)O (stereo not given)
- GI50 (ACHN): 653 µM (inactive)
- GI50 (CCRF-CEM): 1.02 µM (active)
- GI50 (COLO 205): 0.735 µM (active)
- GI50 (DLD-1): 0.656 µM (active)
- GI50 (DMS-114): 0.968 µM (active)
- GI50 (DMS-273): 0.75 µM (active)
- GI50 (HCT-116): 1.75 µM (inactive)
- GI50 (HCT-15): > 1000 µM
- GI50 (HL-60): 659 µM (inactive)
- GI50 (HOP-18): 462 µM (inactive)
- GI50 (HOP-92): 348 µM (inactive)
- GI50 (HT-29): 0.891 µM (active)
- GI50 (LOX IMVI): 0.658 µM (active)
- GI50 (OVCAR-5): 436 µM (inactive)
- GI50 (RPMI-8226): 908 µM (inactive)
- GI50 (RXF 393): 498 µM (inactive)
- GI50 (SK-MEL-28): 927 µM (inactive)
- GI50 (SK-MEL-2): 378 µM (inactive)
- GI50 (SK-OV-3): 684 µM (inactive)
- GI50 (SR): 0.644 µM (active)
- GI50 (SW-620): > 1000 µM (inactive)
- GI50 (TK-10): 655 µM (inactive)
